Measurements: patent US8859527B2 (priority 2009, dated 2014)
Read-outs that look alike come from different tables or passages of the source.

Experiments:
transplanted tumor Heps = tested on: transplanted tumor Heps
Description: (§1) Experimental groups: three dosage groups were set up for DPT, 10, 5 and 2.5 mg/kg; the blank control group: cyclophosphamide (CTX) group, Etoposide group 20 mg/kg.
(§2) Administration route: injection via tail vein, it is administered in a dosage of 0.4 ml/20 g body weight. Administration period: the drug is administrated 24 hours after the inoculation, once every two days for four times in total.
(§3) Experimental methods: 60 ICR mice with standard weight of from 18 to 22 g are inoculated with S-180 or Heps solid tumor according to the test method for transplanted tumors, hypodermic inoculation with 0.2 ml is carried out in the armpit in the anterior limb of every mouse. The body weight is determined 24 hours after the inoculation and they are randomly divided into six groups: the blank control group, the CTX group (20 mg/kg), the Etoposide group (20 mg/kg), the DPT group (10, 5 and 2.5 mg/Kg). The drug is administrated 24 hours after the inoculation once for every two days for 4 times, and tumor-bearing mice are killed on the next after drug withdrawal and their body weights are measured, and the separated tumor mess is weighed, and all of the data are subjected to statistical analyses (t-test).

transplanted tumor S180 = tested on: transplanted tumor S180
Description: as §1, §2, §3

[1] = tested on: A-549 (human lung adenocarcinoma cell line); assay: in vitro growth inhibition of tumor cells, A-549; format: cell-based; settings: A549, 48 hours
Description: (§4) The tumor strains are A-549 (human lung adenocarcinoma cell line), BGC-823 (human gastric cancer cell line), C-6 (rat neurogliocytoma cell line), Hep G2 (human hepatic cancer cell line), HL-60 (human leukemia cell line), K-562 (human erythremia cell line) and Hela (human cervical cancer cell line). […] The drug was prepared as a stock solution of 10^−2 M by using physiological saline and diluted into the test solution in a gradient composed of five concentrations: C1 5×10^−5 M, C2 10^−5 M, C3 10^−6 M, C4 10^−7 M and C5 10^−8 M.
(§5) Experimental method: different tumor cells in exponential growth phase are inoculated in 96-well plates in a certain amount and the selected samples are added after the cells are cultured for 24 hours (suspension cells can be directly added after being inoculated), after the cells are incubated at 37° C. and 5% CO2 for another 48 hours, […] is added for further incubation for another 4 hours, and finally the samples are examined on a microplate reader after dissolving with DMSO.

[2] = tested on: BGC-823 (human gastric cancer cell line); assay: in vitro growth inhibition of tumor cells, BGC-823; format: cell-based; settings: 48 hours
Description: as §4, §5

[3] = tested on: C-6 (rat neurogliocytoma cell line); assay: in vitro growth inhibition of tumor cells, C-6; format: cell-based; settings: C6, 48 hours
Description: as §4, §5

[4] = tested on: Hep G2 (human hepatic cancer cell line); assay: in vitro growth inhibition of tumor cells, Hep G2; format: cell-based; settings: HepG2, 48 hours
Description: as §4, §5

[5] = tested on: HL-60 (human leukemia cell line); assay: in vitro growth inhibition of tumor cells, HL-60; format: cell-based; settings: 48 hours
Description: as §4, §5

[6] = tested on: Hela (human cervical cancer cell line); assay: in vitro growth inhibition of tumor cells, Hela; format: cell-based; settings: hela, 48 hours
Description: as §4, §5

[7] = tested on: K-562 (human erythremia cell line); assay: in vitro growth inhibition of tumor cells, K-562; format: cell-based; settings: K562, 48 hours
Description: as §4, §5

[8] = tested on: human non-small cell lung cancer H460 xenograft tumor; settings: mouse, in vivo, iv, 20 mg/kg
Description: (§6) The test article: the inclusion complex of DPT and SBE-β-CD, the content is 5.05%. Preparation Method: it is dissolved in a proper amount of saline after gentle shaking and the concentration is 0.4 mg/ml (which is the test solution for the 8 mg/kg group); other concentrations are prepared by diluting the stock solution of 0.4 mg/ml to the required concentration with physiological saline.
(§7) The control article: Etoposide injection produced by Qilu Pharmaceutical Co., Ltd. the batch number is 8060012EV, specification: 5 ml:0.1 g. Preparation Method: Etoposide injection is a kind of transparent sticky liquid and it is diluted with a proper amount of physiological saline and gently shaken and prepared as a homogeneous solution, and the concentration is 1 mg/ml.
(§8) Dosage setting: the high dosage group of DPT is 8 mg/kg, the medium dosage group of DPT is 4 mg/kg and the low dosage group of DPT is 2 mg/kg. The dosage for the positive control group of Etoposide injection is 20 mg/kg.
(§9) Experimental animals: source, germline and strain: BALB/c nude mice are provided by the Institute of Experimental Animals, Chinese Academy of Medical Sciences. Age: 35-40 days; body weight: 18-24 g; gender: male.
(§10) Transplanted tumor: the transplanted tumor for human nonsmall-cell lung cancer H460 in nude mice, and it is established by inoculating the human nonsmall-cell lung cancer H460 cell line hypodermically in the armpit of nude mice. 2×10^6 cells are inoculated.
(§11) Human non-small cell lung cancer H460 cell line in exponential phase of growth is prepared as a cell suspension of 2×10^7/ml under sterile conditions, 0.1 ml thereof is inoculated hypodermically in the right armpit of nude mice. The diameters of the transplanted tumors in the nude mice are measured by a sliding caliper, and the animals are randomly divided into different groups when the tumors grow up to the amount of 100 to 300 mm^3. The antitumor efficacy of the test article is dynamically observed by measuring the diameter of the tumor. The diameters of the tumor are determined once for every two days. The administration volume is 0.4 ml/20 g. The mice are killed 21 days after administration, and the tumors are surgically isolated and weighed. The calculation formula for tumor volume (TV) is as follows: TV=½×a×b^2 Wherein a and b represents for the length and the width, respectively.
(§12) The relative tumor volume (RTV) is calculated according to the measured results, and the calculation formula is as follows: RTV=Vt/V0. Wherein V0 is the tumor size measured during grouping and drug administration (d0), Vt is the tumor size in every measurements. The evaluation parameter for antitumor activity is the relative tumor growth rate T/C (%) which is calculated according to the formula as follows:
(§13) [formula] TRTV: the treatment group RTV; CRTV: the negative control group: RTV.

[9] = tested on: human non-small cell lung cancer H460 xenograft tumor; settings: for Tumor volume / RTV / T/C / Gross tumor volume: 20 mg/kg iv
Description: as §6, §7, §8, §9, §10, §11, §12, §13

[10] = Heps mice, 20 mg/kg iv, once every two days, four times
[11] = S180 mice, 20 mg/kg iv, once every two days, four times
[12] = H460 nude mice, 20 mg/kg iv three times a week, 9 times, 21 days

O=P1(N(CCCl)CCCl)NCCCO1 (centres unmarked) [CTX, cyclophosphamide, reference compound]
Body weight Before administration (transplanted tumor Heps; Heps mice, 20 mg/kg iv group): 21.30 ± 1.49 g | Body weight After administration (transplanted tumor Heps; [10]): 22.50 ± 3.69 g | Tumor inhibition rate (transplanted tumor Heps; [10]): 66.94% | Tumor weight (transplanted tumor Heps; [10]): 0.65 ± 0.21 g | Body weight Before administration (transplanted tumor S180; S180 mice, 20 mg/kg iv group): 19.80 ± 1.69 g | Body weight After administration (transplanted tumor S180; [11]): 23.00 ± 2.50 g | Tumor weight (transplanted tumor S180; [11]): 0.98 ± 0.22 g | Tumor-inhibition rate (transplanted tumor S180; [11]): 46.77%

COc1cc([C@@H]2c3cc4c(cc3[C@@H](O[C@@H]3O[C@@H]5CO[C@@H](C)O[C@H]5[C@H](O)[C@H]3O)[C@H]3COC(=O)[C@H]23)OCO4)cc(OC)c1O [Etoposide, reference compound]
Inhibition effects on in vitro growth ([1]; 5 × 10^−5M): 68.67% | Inhibition effects on in vitro growth ([1]; 10^−5M): 22.99% | Inhibition effects on in vitro growth ([1]; 10^−6M): 5.18% | Inhibition effects on in vitro growth ([1]; 10^−7M): 3.68% | Inhibition effects on in vitro growth ([1]; 10^−8M): 2.3% | Inhibition effects on in vitro growth ([2]; 5 × 10^−5M): 61.14% | Inhibition effects on in vitro growth ([2]; 10^−5M): 10.55% | Inhibition effects on in vitro growth ([2]; 10^−6M): 8.15% | Inhibition effects on in vitro growth ([2]; 10^−7M): 7.67% | Inhibition effects on in vitro growth ([2]; 10^−8M): 3.41% | Inhibition effects on in vitro growth ([3]; 5 × 10^−5M): 66.2% | Inhibition effects on in vitro growth ([3]; 10^−5M): 59.96% | Inhibition effects on in vitro growth ([3]; 10^−6M): 49.99% | Inhibition effects on in vitro growth ([3]; 10^−7M): 16.67% | Inhibition effects on in vitro growth ([3]; 10^−8M): 9.98% | Inhibition effects on in vitro growth ([4]; 5 × 10^−5M): 97.14% | Inhibition effects on in vitro growth ([4]; 10^−5M): 38.94% | Inhibition effects on in vitro growth ([4]; 10^−6M): 8.71% | Inhibition effects on in vitro growth ([4]; 10^−7M): 2.02% | Inhibition effects on in vitro growth ([4]; 10^−8M): 1.71% | Inhibition effects on in vitro growth ([5]; 5 × 10^−5M): 94.85% | Inhibition effects on in vitro growth ([5]; 10^−5M): 16.01% | Inhibition effects on in vitro growth ([5]; 10^−6M): 8.45% | Inhibition effects on in vitro growth ([5]; 10^−7M): 3.48% | Inhibition effects on in vitro growth ([5]; 10^−8M): 1.91% | Inhibition effects on in vitro growth ([6]; 5 × 10^−5M): 97.26% | Inhibition effects on in vitro growth ([6]; 10^−5M): 24.71% | Inhibition effects on in vitro growth ([6]; 10^−6M): 6.87% | Inhibition effects on in vitro growth ([6]; 10^−7M): 5.63% | Inhibition effects on in vitro growth ([6]; 10^−8M): 4.35% | Inhibition effects on in vitro growth ([7]; 5 × 10^−5M): 67.32% | Inhibition effects on in vitro growth ([7]; 10^−5M): 15.04% | Inhibition effects on in vitro growth ([7]; 10^−6M): 4.45% | Inhibition effects on in vitro growth ([7]; 10^−7M): 3.08% | Inhibition effects on in vitro growth ([7]; 10^−8M): 2.38% | Tumor inhibition rate (transplanted tumor Heps; [10]): 59.31% | Tumor weight (transplanted tumor Heps; [10]): 0.80 ± 0.37 g | Body weight After administration (transplanted tumor Heps; mouse, in vivo, iv, 20 mg/kg): 22.40 ± 2.41 g | Body weight Before administration (transplanted tumor Heps; mouse, in vivo, iv, 20 mg/kg): 21.10 ± 1.37 g | Tumor weight (transplanted tumor S180; [11]): 1.05 ± 0.35 g | Tumor-inhibition rate (transplanted tumor S180; [11]): 43.03% | Body weight After administration (transplanted tumor S180; mouse, in vivo, iv, 20 mg/kg): 23.30 ± 1.83 g | Body weight Before administration (transplanted tumor S180; mouse, in vivo, iv, 20 mg/kg): 19.30 ± 1.06 g | Initial body weight [8]: 22.67 ± 1.37 g | toxicity [8]: obvious toxicity | Tumor volume ([9]; 0 d): 275 ± 130 mm^3 | RTV ([9]; 2 d): 1.306 ± 0.356 | T/C ([9]; 2 d): 81.24% | Tumor volume ([9]; 2 d): 352 ± 169 mm^3 | RTV ([9]; 4 d): 2.012 ± 0.744 | T/C ([9]; 4 d): 77.07% | Tumor volume ([9]; 4 d): 534 ± 277 mm^3 | RTV ([9]; 6 d): 2.048 ± 0.441 | T/C ([9]; 6 d): 66.86% | Tumor volume ([9]; 6 d): 531 ± 186 mm^3 | RTV ([9]; 8 d): 2.054 ± 0.776 | T/C ([9]; 8 d): 46.77% | Tumor volume ([9]; 8 d): 539 ± 255 mm^3 | Gross tumor volume ([9]; 10 d): 482 ± 216 mm^3 | RTV ([9]; 10 d): 1.846 ± 0.688 | T/C ([9]; 10 d): 36.90% | Gross tumor volume ([9]; 12 d): 534 ± 254 mm^3 | RTV ([9]; 12 d): 2.189 ± 1.212 | T/C ([9]; 12 d): 29.47% | RTV ([9]; 14 d): 2.898 ± 1.741 | T/C ([9]; 14 d): 34.16% | Tumor volume ([9]; 14 d): 682 ± 311 mm^3 | RTV ([9]; 16 d): 3.115 ± 1.969 | T/C ([9]; 16 d): 31.23% | Tumor volume ([9]; 16 d): 730 ± 384 mm^3 | RTV ([9]; 18 d): 3.876 ± 2.645 | T/C ([9]; 18 d): 34.39% | Tumor volume ([9]; 18 d): 873 ± 407 mm^3 | RTV ([9]; 21 d): 3.706 ± 1.796 | T/C ([9]; 21 d): 32.18% | Tumor volume ([9]; 21 d): 872 ± 305 mm^3 | Tumor weight [9, 12]: 1.27 ± 0.61 g | Tumor-inhibition rate [9, 12]: 61.08%
